From patent US8329425B2, “Method and system for detection of chloramphenicol” (priority 2011, dated 2012)

Experiments:
CAT I V28W mutant [1] = target: T1, CAT I V28W mutant (Escherichia coli, UniProt P62577, C126A/C196A/C212A/C31A/C91A/V28W); details: chloramphenicol 10 μM; CAT I V28W and fluorescein-linked chloramphenicol fixed at 0.15 μM; excitation 494 nm
Procedure: Fluorescence measurements were performed on a Perkin Elmer LS 50B spectrofluorometer with the excitation wavelength set at 494 nm and the excitation and emission slit width set at 5 nm.

CAT I V28W mutant [2] = target: T1, CAT I V28W mutant; experiment: Fluorescence response of fluorescein-linked chloramphenicol to CAT I V28W mutant; assay type: binding, E. coli; design: His6 (N); made in house; host or cells: E. coli BL21 (DE3); details: 0.15 μM fluorescein-linked chloramphenicol, 1.5 μM CAT I V28W (FIG. 6); excitation 494 nm, slit width 5 nm
Text: The excitation wavelength is 494 nm and the slit width is 5 nm.

Compound	increase in fluorescence (CAT I V28W mutant [1]) [%]	fluorescence of fluorescein-linked chloramphenicol in the presence of CAT I V28W mutant (CAT I V28W mutant [2])
O=C(N[C@H](CO)[C@H](O)c1ccc([N+](=O)[O-])cc1)C(Cl)Cl [chloramphenicol]	~10	
O=C(CCCCCNC(=S)Nc1ccc(-c2c3ccc(=O)cc-3oc3cc(O)ccc23)c(C(=O)O)c1)N[C@H](CO)[C@H](O)c1ccc([N+](=O)[O-])cc1 [fluorescein-linked chloramphenicol, 5-(3-(6-(((1R,2R)-1,3-dihydroxy-1-(4-nitrophenyl)propan-2-yl)amino)-6-oxohexyl)thioureido)-2-(6-hydroxy-3-oxo-3H-xanthen-9-yl)benzoic acid]		significantly reduced
